# Reference: patent publication US20210223248A1 (priority 2018, published 2021)
# Several values for one entry are separate records, joined by “and”; a condition that tells them apart may be missing. Equal values may be shown once.
# Key:
# [1] = system: relapsed and/or refractory CD19+ B-ALL; assay type: in vivo, human
# [2] = system: relapsed and/or refractory CD19+ NHL; settings: human, in vivo
Compound,"Odds Ratio (95% CI) for MRD-negative CR ([1]; univariate, fludarabine added to cyclophosphamide-based lymphodepletion (Y))","Estimate, univariate association with Disease-Free Survival ([1]; human, in vivo)","Estimate, univariate association with Overall Survival ([1]; human, in vivo)","Exp (Coef) = hazard ratio for DFS ([1]; human, in vivo)","Exp (−Coef) for DFS ([1]; human, in vivo)","Hazard Ratio (95% CI) for DFS ([1]; human, in vivo)",HR (95% CI) for PFS [2],HR for PFS [2]
"Nc1nc(F)nc2c1ncn2[C@@H]1O[C@H](CO)[C@@H](O)[C@@H]1O [Fludarabine, fludarabine]",0.50 (0.03-3.31),,,,,,,
cyclophosphamide and fludarabine [Cy/Flu],,0.2967,0.4349,0.2490,4.0154,0.2777 (0.1095-0.7042) and 0.2794 (0.1109-0.7042),1.92 (0.99-3.72),4.266
